In patent US20250144223A1, “PROTEIN DEGRADATION COMPOUND BASED ON NAMPT TARGET PROTEIN AND APPLICATION THEREOF” (GLUETACS THERAPEUTICS (SHANGHAI) CO., LTD., priority 2021, published 2025):

Each compound was assayed on Jurkat (assay: CellTiter-Glo Luminescent Cell Viability Assay, half inhibitory concentration (IC50) on tumor cell proliferation). Conditions: Homo sapiens, Jurkat cells, 72 h treatment.
Assay type: cell-based
Protocol: The tumor cells used herein were cultured in a cell culture medium at 37° C. in an incubator with 5% CO2, where the cell culture medium was supplemented with 10% FBS, as well as penicillin at a final concentration of 100 U/mL and streptomycin at a final concentration of 100 μg/mL. Prior to experimentation, all cells used were identified as correct cells by STR cells, and were negative for mycoplasma through routine testing.
IC50 values of the compounds of the present disclosure (including the compounds in Table 1 and compounds of examples) were measured using the CellTiter-Glo® Luminescent Cell Viability Assay kit from Promega Corporation. Assay details are as follows: Cells were seeded in 100 μL RPMI1640 medium containing serum at a density of 20,000 cells/well. After 24 h, the inoculated cells were treated with the compounds of the present disclosure which were serially diluted. After the cells were treated with the compounds of the present disclosure for 72 h, the CellTiter-Glo® reagent was added to the culture medium for cell viability assessment according to the instructions provided with the kit. DMSO served as the negative control, and FK866 inhibitor was used as the positive control, both treated with the same protocol as the compounds of the present disclosure. The growth inhibition of the compounds of the present disclosure on cells was plotted by Prism Graphpad software, and the IC50 values of the compounds of the present disclosure were calculated therefrom.

Row | Structure (SMILES) | IC50 [nM]
1 | O=C(/C=C/c1cccnc1)NCCCCC1CCN(C(=O)c2ccc(N3CCNCC3)cc2)CC1 [SIAIS630006, (E)-N-(4-(1-(4-(piperazin-1-yl)benzoyl)piperidin-4-yl)butyl)-3-(pyridin-3-yl)acrylamide] | 3
2 | Cc1ncsc1-c1ccc(CNC(=O)[C@@H]2C[C@@H](O)CN2C(=O)[C@@H](NC(=O)CCCCC(=O)N2CCN(c3ccc(C(=O)N4CCC(CCCCNC(=O)/C=C/c5cccnc5)CC4)cc3)CC2)C(C)(C)C)cc1 [SIAIS630007, (2S,4R)-1-((S)-3,3-dimethyl-2-(6-oxo-6-(4-(4-(4-(4-((E)-3-(pyridin-3-yl)acrylamido)butyl)piperidine-1-carbonyl)phenyl)piperazin-1-yl)hexanamido)butanoyl)-4-hydroxy-N-(4-(4-methylthiazol-5-yl)benzyl)pyrrolidine-2-carboxamide] | 109
3 | Cc1ncsc1-c1ccc(CNC(=O)[C@@H]2C[C@@H](O)CN2C(=O)[C@@H](NC(=O)CCCCCCCCCCCCCCC(=O)N2CCN(c3ccc(C(=O)N4CCC(CCCCNC(=O)/C=C/c5cccnc5)CC4)cc3)CC2)C(C)(C)C)cc1 [SIAIS630008, (2S,4R)-1-((S)-3,3-dimethyl-2-(16-oxo-16-(4-(4-(4-(4-((E)-3-(pyridin-3-yl)acrylamido)butyl)piperidine-1-carbonyl)phenyl)piperazin-1-yl)hexadecanamido)butanoyl)-4-hydroxy-N-(4-(4-methylthiazol-5-yl)benzyl)pyrrolidine-2-carboxamide] | 96.2
4 | O=C(/C=C/c1cccnc1)NCCCCC1CCN(C(=O)c2ccc(N3CCN(C(=O)CCNc4cccc5c4C(=O)N(C4CCC(=O)NC4=O)C5=O)CC3)cc2)CC1 (stereo not drawn) [SIAIS630009, (E)-N-(4-(1-(4-(4-(3-((2-(2,6-dioxopiperidin-3-yl)-1,3-dioxoisoindolin-4-yl)amino)propanoyl)piperazin-1-yl)benzoyl)piperidin-4-yl)butyl)-3-(pyridin-3-yl)acrylamide] | 2.29
5 | O=C(/C=C/c1cccnc1)NCCCCC1CCN(C(=O)c2ccc(N3CCN(C(=O)CCCNc4cccc5c4C(=O)N(C4CCC(=O)NC4=O)C5=O)CC3)cc2)CC1 (stereo not drawn) [SIAIS630010, (E)-N-(4-(1-(4-(4-(4-((2-(2,6-dioxopiperidin-3-yl)-1,3-dioxoisoindolin-4-yl)amino)butanoyl)piperazin-1-yl)benzoyl)piperidin-4-yl)butyl)-3-(pyridin-3-yl)acrylamide] | 0.351
6 | O=C(/C=C/c1cccnc1)NCCCCC1CCN(C(=O)c2ccc(N3CCN(C(=O)CCCCNc4cccc5c4C(=O)N(C4CCC(=O)NC4=O)C5=O)CC3)cc2)CC1 (stereo not drawn) [SIAIS630011, (E)-N-(4-(1-(4-(4-(5-((2-(2,6-dioxopiperidin-3-yl)-1,3-dioxoisoindolin-4-yl)amino)pentanoyl)piperazin-1-yl)benzoyl)piperidin-4-yl)butyl)-3-(pyridin-3-yl)acrylamide] | 2.85
7 | O=C(/C=C/c1cccnc1)NCCCCC1CCN(C(=O)c2ccc(N3CCN(C(=O)CCCCCCNc4cccc5c4C(=O)N(C4CCC(=O)NC4=O)C5=O)CC3)cc2)CC1 (stereo not drawn) [SIAIS630012, (E)-N-(4-(1-(4-(4-(7-((2-(2,6-dioxopiperidin-3-yl)-1,3-dioxoisoindolin-4-yl)amino)heptanoyl)piperazin-1-yl)benzoyl)piperidin-4-yl)butyl)-3-(pyridin-3-yl)acrylamide] | 2.82
8 | O=C(/C=C/c1cccnc1)NCCCCN1CCN(C(=O)c2ccc(N3CCNCC3)cc2)CC1 [SIAIS630020, (E)-N-(4-(4-(4-(piperazin-1-yl)benzoyl)piperazin-1-yl)butyl)-3-(pyridin-3-yl)acrylamide] | 849
9 | O=C(/C=C/c1cccnc1)NCCCCC1CCN(C(=O)c2ccc(N3CCN(CCCCC#Cc4cccc5c4CN(C4CCC(=O)NC4=O)C5=O)CC3)cc2)CC1 (stereo not drawn) [SIAIS630119, (E)-N-(4-(1-(4-(4-(6-(2-(2,6-dioxopiperidin-3-yl)-1-oxoisoindolin-4-yl)hex-5-yn-1-yl)piperazin-1-yl)benzoyl)piperidin-4-yl)butyl)-3-(pyridin-3-yl)acrylamide] | 2.99
10 | O=C(/C=C/c1cccnc1)NCCCCC1CCN(C(=O)c2ccc(N3CCN(CCCCCCCC#Cc4cccc5c4CN(C4CCC(=O)NC4=O)C5=O)CC3)cc2)CC1 (stereo not drawn) [SIAIS630122, (E)-N-(4-(1-(4-(4-(9-(2-(2,6-dioxopiperidin-3-yl)-1-oxoisoindolin-4-yl)non-8-yn-1-yl)piperazin-1-yl)benzoyl)piperidin-4-yl)butyl)-3-(pyridin-3-yl)acrylamide] | 28.3
11 | O=C(/C=C/c1cccnc1)NCCCCC1CCN(C(=O)c2ccc(N3CCN(CCCC#Cc4cccc5c4CN(C4CCC(=O)NC4=O)C5=O)CC3)cc2)CC1 (stereo not drawn) [SIAIS630129, (E)-N-(4-(1-(4-(4-(5-(2-(2,6-dioxopiperidin-3-yl)-1-oxoisoindolin-4-yl)pent-4-yn-1-yl)piperazin-1-yl)benzoyl)piperidin-4-yl)butyl)-3-(pyridin-3-yl)acrylamide] | 2.93
12 | O=C(/C=C/c1cccnc1)NCCCCC1CCN(C(=O)c2ccc(N3CCN(CCCCCCSc4cccc5c4CN(C4CCC(=O)NC4=O)C5=O)CC3)cc2)CC1 (stereo not drawn) [SIAIS630133, (E)-N-(4-(1-(4-(4-(6-((2-(2,6-dioxopiperidin-3-yl)-1-oxoisoindolin-4-yl)thio)hexyl)piperazin-1-yl)benzoyl)piperidin-4-yl)butyl)-3-(pyridin-3-yl)acrylamide] | 6.37

Results, then the compound that gave them:

Row | IC50 [nM] | Structure (SMILES)
13 | 190 | O=C(/C=C/c1cccnc1)NCCCCC1CCN(C(=O)c2ccc(N3CCN(C(=O)CSc4cccc5c4CN(C4CCC(=O)NC4=O)C5=O)CC3)cc2)CC1 (stereo not drawn) [SIAIS630013, (E)-N-(4-(1-(4-(4-(2-((2-(2,6-dioxopiperidin-3-yl)-1-oxoisoindolin-4-yl)thio)acetyl)piperazin-1-yl)benzoyl)piperidin-4-yl)butyl)-3-(pyridin-3-yl)acrylamide]
14 | 1.99 | O=C(/C=C/c1cccnc1)NCCCCC1CCN(C(=O)c2ccc(N3CCN(C(=O)CCCCSc4cccc5c4CN(C4CCC(=O)NC4=O)C5=O)CC3)cc2)CC1 (stereo not drawn) [SIAIS630014, (E)-N-(4-(1-(4-(4-(5-((2-(2,6-dioxopiperidin-3-yl)-1-oxoisoindolin-4-yl)thio)pentanoyl)piperazin-1-yl)benzoyl)piperidin-4-yl)butyl)-3-(pyridin-3-yl)acrylamide]
15 | 1.14 | O=C(/C=C/c1cccnc1)NCCCCC1CCN(C(=O)c2ccc(N3CCN(C(=O)CCCCCSc4cccc5c4CN(C4CCC(=O)NC4=O)C5=O)CC3)cc2)CC1 (stereo not drawn) [SIAIS630037, (E)-N-(4-(1-(4-(4-(6-((2-(2,6-dioxopiperidin-3-yl)-1-oxoisoindolin-4-yl)thio)hexanoyl)piperazin-1-yl)benzoyl)piperidin-4-yl)butyl)-3-(pyridin-3-yl)acrylamide]
16 | 24.7 | O=C(/C=C/c1cccnc1)NCCCCC1CCN(C(=O)c2ccc(N3CCN(C(=O)COCCSc4cccc5c4CN(C4CCC(=O)NC4=O)C5=O)CC3)cc2)CC1 (stereo not drawn) [SIAIS630038, (E)-N-(4-(1-(4-(4-(2-(2-((2-(2,6-dioxopiperidin-3-yl)-1-oxoisoindolin-4-yl)thio)ethoxy)acetyl)piperazin-1-yl)benzoyl)piperidin-4-yl)butyl)-3-(pyridin-3-yl)acrylamide]
17 | 7.96 | O=C(/C=C/c1cccnc1)NCCCCC1CCN(C(=O)c2ccc(N3CCN(C(=O)COCCOCCSc4cccc5c4CN(C4CCC(=O)NC4=O)C5=O)CC3)cc2)CC1 (stereo not drawn) [SIAIS630039, (E)-N-(4-(1-(4-(4-(2-(2-(2-((2-(2,6-dioxopiperidin-3-yl)-1-oxoisoindolin-4-yl)thio)ethoxy)ethoxy)acetyl)piperazin-1-yl)benzoyl)piperidin-4-yl)butyl)-3-(pyridin-3-yl)acrylamide]
18 | 2.52 | O=C(/C=C/c1cccnc1)NCCCCC1CCN(C(=O)c2ccc(N3CCN(CCCCSc4cccc5c4CN(C4CCC(=O)NC4=O)C5=O)CC3)cc2)CC1 (stereo not drawn) [SIAIS630123, (E)-N-(4-(1-(4-(4-(4-((2-(2,6-dioxopiperidin-3-yl)-1-oxoisoindolin-4-yl)thio)butyl)piperazin-1-yl)benzoyl)piperidin-4-yl)butyl)-3-(pyridin-3-yl)acrylamide]
19 | 24.2 | O=C(/C=C/c1cccnc1)NCCCCC1CCN(C(=O)c2ccc(N3CCN(CCSc4cccc5c4CN(C4CCC(=O)NC4=O)C5=O)CC3)cc2)CC1 (stereo not drawn) [SIAIS630130, (E)-N-(4-(1-(4-(4-(2-((2-(2,6-dioxopiperidin-3-yl)-1-oxoisoindolin-4-yl)thio)ethyl)piperazin-1-yl)benzoyl)piperidin-4-yl)butyl)-3-(pyridin-3-yl)acrylamide]
20 | 4.38 | O=C(/C=C/c1cccnc1)NCCCCC1CCN(C(=O)c2ccc(N3CCN(CCCSc4cccc5c4CN(C4CCC(=O)NC4=O)C5=O)CC3)cc2)CC1 (stereo not drawn) [SIAIS630131, (E)-N-(4-(1-(4-(4-(3-((2-(2,6-dioxopiperidin-3-yl)-1-oxoisoindolin-4-yl)thio)propyl)piperazin-1-yl)benzoyl)piperidin-4-yl)butyl)-3-(pyridin-3-yl)acrylamide]
21 | 6.29 | O=C(/C=C/c1cccnc1)NCCCCC1CCN(C(=O)c2ccc(N3CCN(CCCCCSc4cccc5c4CN(C4CCC(=O)NC4=O)C5=O)CC3)cc2)CC1 (stereo not drawn) [SIAIS630132, (E)-N-(4-(1-(4-(4-(5-((2-(2,6-dioxopiperidin-3-yl)-1-oxoisoindolin-4-yl)thio)pentyl)piperazin-1-yl)benzoyl)piperidin-4-yl)butyl)-3-(pyridin-3-yl)acrylamide]
